Tests used:
[1] = system: MCF7; experiment: Antiproliferative activity against estrogen receptor expressing human MCF7 cells; assay type: functional
[2] = Antiproliferative activity against estrogen receptor negative human MDA-MB-436 cells
[3] = Antiproliferative activity against HUVEC cells; assay type: cell-based; settings: human
[4] = system: K562; experiment: Antiproliferative activity against human K562 cells; assay type: functional
[5] = system: HeLa; experiment: Cytotoxicity against human HeLa cells; assay type: functional

SMILES	GI50 [1]	GI50 [2]	GI50 [4]	GI50 [3]	CC50 [5]
COc1c(O)ccc(-c2coc3cc(O)cc(O)c3c2=O)c1O	15 µM	32 µM	48 µM	64 µM	77 µM
O=c1c(-c2cc(O)cc(O)c2)coc2cc(O)cc(O)c12	65 µM	> 174 µM	75 µM	133 µM	134 µM
O=c1c2c(O)cc(O)cc2occ1[C@]1(O)CC[C@@H](O)CC1	75 µM	147 µM			
O=c1c(-c2ccc(O)cc2)coc2cc(O)ccc12 [DAIDZEIN]	122 µM	> 196 µM			

Now from value to compound, other results behind:

GI50 [1]	GI50 [2]	GI50 [4]	SMILES	GI50 [3]	CC50 [5]
37 µM	68 µM		COc1c(O)ccc(-c2coc3cc(O)ccc3c2=O)c1O		
84 µM	138 µM	> 162 µM	O=c1c([C@]2(O)CC[C@@H](O)[C@H](O)C2)coc2cc(O)cc(O)c12	> 162 µM	> 162 µM
6 µM	17 µM	> 172 µM	O=c1c(C2=CCCC(O)C2O)coc2cc(O)cc(O)c12 (stereo not given)	17 µM	81 µM
42 µM	75 µM		COc1cc(-c2coc3cc(O)ccc3c2=O)ccc1O		
73 µM	169 µM	> 185 µM	O=c1c(-c2cc(O)cc(O)c2)coc2cc(O)ccc12	> 185 µM	160 µM
10 µM	17 µM		O=c1c(-c2ccc(O)cc2)coc2cc(O)cc(O)c12 [GENISTEIN]		

Source: ChEMBL document CHEMBL1154347, “Isoflavones with unusually modified B-rings and their evaluation as antiproliferative agents” (Bioorg Med Chem Lett, 2009)
